Measurements: patent US7119071B2, “Amino terminal substance P compositions and methods for using the same” (University of Medicine and Dentistry of New Jersey, priority 2002, dated 2006)

Key:
Type in all cases: cell-based, human
NK-1 mRNA = experiment: Quantitative RT-PCR for NK-1 mRNA in BM stroma; settings: n=6; for NK-1 mRNA, 1st stimulation: BM stroma, 10 nM SP(1-4) or 10 ng/ml SCF for 16 h, mean±SD; for NK-1 mRNA, 2nd stimulation: BM stroma washed and re-stimulated for 16 h after 16 h 1st stimulation
Description: (§1) Stromal cultures were prepared with BM aspirates from healthy donors as described^24. Briefly, stromal cells were cultured at 33° C. and at day 3, the granulocytes and red blood cells were removed by Ficoll-Hypaque density gradient. Cultures were reincubated with weekly replacement of 50% culture media until confluence. Cytokine, NK receptor and c-kit expressions were studied in confluent stroma, stimulated with 10 nM SP(1-4) and/or 10 ng/ml SCF. Stroma was stimulated in 3 ml sera-free cc-MEM, supplemented with insulin-transferring-selenium-A (Life Technologies, Grand Island, N.Y.). At 16 h, stromal monolayers were washed with sera-free α-MEM and then re-incubated for 16 h with media, 10 nM SP(1-4) or 10 ng/ml SCF. Controls included stroma cultured for 16 h or 32 h in media alone. Time-course and dose-response curves established the optimal concentrations of SCF and SP(1-4).
(§2) Quantitative RT-PCR for NK-1, NK-2 and β-PPT-I mRNA was performed as described^3, 24. Briefly, 2 μg of total RNA from BM stroma was reverse transcribed and 200 ng cDNA used in PCR reactions with standard DNA at log10 fold dilutions ranging between 10^−2 and 10^−6 attomole/L. PCR products (10 μl) were separated on agarose containing ethidium bromide. The DNA was scanned with a Fluorimager (Molecular Dynamics, Sunnyvale, Calif.) and the densities analyzed with ImageQuant software (Molecular Dynamics, version 5.2). A standard curve was established for each unknown sample: Band densities of unknown/standard DNA vs. Log10 standard DNA concentration. The concentration of the unknown sample was read at the point where the ratio of the unknown and standard were equivalent. Construction of DNA standards was previously described^24. • 1. Immunofluorescence for NK Receptors
(§3) BM stroma was stimulated with 10 nM SP(1-4) or 10 ng/ml SCF for 16 h (1st stimulation). After this, cultures were washed and then re-stimulated further for 16 h with similar concentrations of SP(1-4) or SCF (2nd stimulation). NK-1, NK-2 and β-PPT-I mRNA levels were quantitative by RT-PCR. The results are represented as the mean±SD, n=6. Each experiment was performed with a different BM donor. p<0.05: * vs. unstimulated or SP(1-4). […]: ** vs. unstimulated or SP(1-4).

β-PPT-I mRNA = experiment: Quantitative RT-PCR for β-PPT-I mRNA in BM stroma; settings: n=6; for β-PPT-I mRNA, 1st stimulation: BM stroma, 10 nM SP(1-4) or 10 ng/ml SCF for 16 h, mean±SD; for β-PPT-I mRNA, 2nd stimulation: BM stroma washed and re-stimulated for 16 h after 16 h 1st stimulation
Description: as §1, §2, §3

CFU-GM = experiment: Clonogenic assay for CFU-GM in sera-free cultures; settings: n=7
Description: BM aspirate was obtained from the posterior iliac crest of normal healthy volunteers. Mononuclear cells were isolated by Ficoll-Hypaque density gradient and then assayed for CFU-GM in sera-free cultures as described^3. Briefly, 10^5 BM mononuclear cells/ml were plated in methylcellulose with 10 or 1 nM of SP(1-4). Each experimental point was assayed in duplicate. Cultures were assayed in parallel in the presence or absence of anti-TGF-β or anti-TNF-α, each ranging between 2 μg/ml and 10 ng/ml. Cultures contained 3 U/ml of rhGM-CSF. At day 10, the number of colonies with >20 cells were counted.

NK-2 mRNA = experiment: Quantitative RT-PCR for NK-2 mRNA in BM stroma; settings: n=6; for NK-2 mRNA, 1st stimulation: BM stroma, 10 nM SP(1-4) or 10 ng/ml SCF for 16 h, mean±SD; for NK-2 mRNA, 2nd stimulation: BM stroma washed and re-stimulated for 16 h after 16 h 1st stimulation
Description: as §1, §2, §3

TGF-β in BM stroma = experiment: Induction of TGF-β in BM stroma (CCL 64 growth inhibition bioassay); settings: for TGF-β (pg/ml) 1st stimulation: BM stroma, 16 h, secreted and cell-bound, mean±SD; for TGF-β (pg/ml) 1st stimulation / TGF-β (pg/ml) 2nd stimulation: 10 nM SP(1-4) or 10 ng/ml SCF; for TGF-β (pg/ml) 2nd stimulation: BM stroma re-stimulated for 16 h after 16 h 1st stimulation
Description: as §1
Growth inhibition of CCL 64 cells forms the basis of the bioassay used to quantitate active TGF-β^25. Each sample was tested in triplicate with […] of supernatants. TGF-β levels were determined from a standard curve established with TGF-β concentrations ranging from 0.001 to 10 ng/ml vs. cell concentration. The presence of TGF-β1 was verified by reanalyses of samples containing >20 ng/ml TGF-β with neutralizing anti-hTGF-β1^25. Neutralization was determined if the anti-TGF-β1 reversed the growth inhibitory effect of the supernatants. • 1. Biopanning of Phage Display Library and Selection of Clones
BM stroma was stimulated with 10 nM SP(1-4) or 10 ng/ml SCF (1st stimulation). After 16 h, cells were harvested or cultures were re-stimulated for 16 h (2nd stimulation) with 10 nM SP(1-4) or 10 ng/ml SCF. TGF-β and TNF-α levels were determined in the total volume of supernatants and cell extracts, obtained from one flask of stromal cells. The results are represented as the mean±SD of the total concentration (secreted and cell-bound/106 stromal cells). p<0.05 vs. unstimulated or SCF.

NEP mRNA = experiment: Northern analysis of steady state NEP mRNA in BM stroma; settings: 10 ng/ml SCF, FIG. 4A
Description: Northern analyses for steady state NEP and NK-1 mRNA were performed as described^28. For NEP mRNA, stromal cells were stimulated with SCF for 16 h in sera-free α-MEM supplemented with Insulin-Transferring-Selenium-A. At different times after, total RNA was extracted and 10 μg used for northern analyses. Membranes were consecutively hybridized with [α-^32P]-dATP-labeled cDNA probes for NEP and 18S rRNA as described^3. NK-1 mRNA was determined with total RNA from stromal cultures that were sequentially stimulated with SCF and SP(1-4), described above. The cDNA for NK-1 is previously described^29. NK-2 cDNA was prepared by RT-PCR with total RNA from BM stroma as template and the same primers used for quantitative RT-PCR (described above). The NK-2 fragment, which was equivalent to 274 bp was subcloned into pNoTA/T7 (5 Prime→3 Prime, Boulder, Colo.). The cDNA for human NEP sand 18S rRNA were purchased from American Type Culture Collection (Manassas, Va.).
Total RNA from unstimulated and stimulated (10 ng/ml SCF) BM stroma was analyzed for steady state NEP mRNA levels by northern analyses. The results shown in FIG. 4A indicate single bands at the predicted size of 1.8 kb. […] Analyses for SP and SP(1-4) were performed at different times using Ciphergen's ProteinChip Arrays. ELISA determined the levels of SP-IR in the supernatant and cell extracts of the stimulated stroma (5×10^6 stroma). […]

SP-IR = experiment: Competitive ELISA for SP-immunoreactivity (SP-IR) in stimulated BM stroma; settings: 10 ng/ml SCF, 5×10^6 stroma
Description: Competitive ELISA quantitated SP-IR as described^3. Briefly, Immulon 96-well plates (Dynatech Laboratories Inc., Chantilly, Va.) were precoated with streptavidin and then incubated with biotinylated SP (Chiron Mimotopes, Emeryville, Calif.). Equal volumes (50 μl) of unknown samples and optimum rabbit anti-SP were added to quadruplicate wells. Each sample was assayed as undiluted and three serial dilutions. Complexed anti-SP was detected with Alk Phos-conjugated goat anti-rabbit IgG and Sigma 104 phosphatase substrate. SP-IR levels were calculated from a standard curve developed with O.D. at 405 nm vs. 12 serial dilutions of known SP concentrations, ranging from 100 to 0.08 pg/ml.
Total RNA from unstimulated and stimulated (10 ng/ml SCF) BM stroma was analyzed for steady state NEP mRNA levels by northern analyses. The results shown in FIG. 4A indicate single bands at the predicted size of 1.8 kb. […] Analyses for SP and SP(1-4) were performed at different times using Ciphergen's ProteinChip Arrays. ELISA determined the levels of SP-IR in the supernatant and cell extracts of the stimulated stroma (5×10^6 stroma). An affinity protein chip with mobilized anti-SP determined the presence of SP(1-4) in extracts from 48 h-stimulated stroma. […] At 24 h, the total levels of SP-IR (supernatants and cell extracts) in stimulated stroma were 185±8 ng. SP levels were reduced to 12±5 ng at 48 h and to baseline levels (<2 ng) at 72 h (Table 3).

c-kit = experiment: Immunofluorescence for c-kit in BM stroma; settings: 10 ng/ml SCF, 6 h to 24 h, dim in unstimulated stroma
Description: The relative expression of c-kit in BM stroma was determined by immunofluorescence. BM stroma was cultured on coverslips (Fisher Scientific, Springfield, N.J.) and then stimulated with 10 ng/ml of SCF. At different times after cell stimulation, cells were labeled with 50 ng/ml of biotinylated goat anti-c-kit and FITC-avidin. Non-specific binding was determined with biotinylated non-immune goat anti-IgG. Cells were immediately examined on an OlympusProbis microscope (New York/New Jersey Scientific, Inc., Middlebush, N.J.).

NK-1 receptor = experiment: Immunofluorescence for SP-binding sites (NK-1) in BM stroma; settings: 10 ng/ml SCF and/or 10 nM SP(1-4), FIG. 2
Description: (§4) BM stroma was stimulated with 10 ng/ml of SCF. At 24 h, cells were washed and then immediately incubated at 4° C. for 2 h with 200 ng/ml of biotin-SP or biotin-NK-A. After this, cells were labeled with FITC-avidin for 30 min and then examined for fluorescence intensity with an Olympus Provis AX-70 at 480±40 nm/excitation and 535±50 nm/emission. […] The optimal experimental conditions were determined in dose-response and time-course studies. Specificity of binding by SP or NK-A was studied in competition labeling with the pan-tachykinin antagonist, spantide. • 2. TNF-α determination
(§5) Since NK-1 and NK-2 receptors mediated the hematopoietic effects of the tachykinins^5, this section describes the studies and their results designed to further determine the interacting receptor for SP(1-4). Due to the lack of specific antibodies to the human NK-1 and NK-2 receptors, their detection by immunofluorescence was performed with the preferred ligand that was conjugated to biotin: SP for NK-1 and NK-A for NK-2^12. Spantide, a pan-tachykinin antagonist that competes with the ligand for NK receptor binding was used to determine the specificity of binding.

NK-2 receptor = experiment: Immunofluorescence for NK-A-binding sites (NK-2) in BM stroma; settings: 10 ng/ml SCF and/or 10 nM SP(1-4), FIG. 2
Description: as §4, §5

| Substance | NK-1 mRNA, 1st stimulation (NK-1 mRNA) | β-PPT-I mRNA, 1st stimulation (β-PPT-I mRNA) | percent inhibition on CFU-GM (CFU-GM; 1 nM SP(1-4)) [%] | percent inhibition on CFU-GM (CFU-GM; 10 nM SP(1-4)) [%] | NK-2 mRNA, 1st stimulation (NK-2 mRNA) | TGF-β, stimulated BM stroma (TGF-β in BM stroma; 1st stimulation, text citing Table 1) [pg] | TGF-β (pg/ml) 1st stimulation (TGF-β in BM stroma) | NK-1 mRNA, 2nd stimulation (NK-1 mRNA) | steady state NEP mRNA (northern band) (NEP mRNA; 16 h and 24 h) | steady state NEP mRNA (northern band) (NEP mRNA; 48 h) | total levels of SP-IR (supernatants and cell extracts) (SP-IR; 24 h, unstimulated <2 ng) [ng] | total levels of SP-IR (supernatants and cell extracts) (SP-IR; 48 h) [ng] | total levels of SP-IR (supernatants and cell extracts) (SP-IR; 72 h) [ng] | fluorescence intensity of c-kit labeling (c-kit) | NK-1 expression (biotin-SP binding) (NK-1 receptor) | NK-2 expression (biotin-NK-A binding) (NK-2 receptor) | β-PPT-I mRNA, 2nd stimulation (β-PPT-I mRNA) | NK-2 mRNA, 2nd stimulation (NK-2 mRNA) | TGF-β (pg/ml) 2nd stimulation (TGF-β in BM stroma) | TGF-β levels after 2nd stimulation (TGF-β in BM stroma; 1st stimulation SP(1-4), 2nd stimulation 16 h later, text citing Table 1) [pg] |
| --- | --- | --- | --- | --- | --- | --- | --- | --- | --- | --- | --- | --- | --- | --- | --- | --- | --- | --- | --- | --- |
| Arg-Pro-Lys-Pro (RPKP; listed as Homo sapiens) [SP(1-4), tetrapeptide resulting from degradation of SP by endopeptidases such as NEP] | <1 molecules/μg total RNA | <1 | 55±4 | 65±6 | **510 ± 15 | 90 ± 15 | *90 ± 15 pg/ml | – | – | – | – | – | – | – | – | – | – | – | – | – |
| SCF: stem cell factor, hematopoietic stimulator cytokine purchased from R&D Systems | *1550 ± 26 molecules/μg total RNA | 640 ± 15 | – | – | 17 ± 3 | – | <5 pg/mL | 1480±34 molecules/μg total RNA | Strong bands | no detectable band | 185 ± 8 | 12 ± 5 | < 2 | increased to bright | SP binds to stromal cells | did not bind | – | – | – | – |
| SCF→SCF: 1st and 2nd stimulation with 10 ng/ml SCF | – | – | – | – | – | – | – | *1480 ± 34 molecules/μg total RNA | – | – | – | – | – | – | – | – | 45 ± 4 | 10 ± 2 | <5 pg/mL | – |
| SP(1-4)→SP(1-4): 1st and 2nd stimulation with 10 nM SP(1-4) (RPKP; Substance P; UniProt P20366 58-61, looked up, fragment) | – | – | – | – | – | – | – | <1 molecules/μg total RNA | – | – | – | – | – | – | – | – | <1 | **484 ± 10 | *64 ± 4 pg/ml | 64 ± 4 |
